Data on six compounds can be found in publication PMC5617480 (Oncotarget, 2017).

The test system of test [1] is BEL-7404 cells. More on the design: method as in earlier work. The following applies: BEL-7404, 48 h; ref [1]; cited from earlier work.
For test [2], the system named is HTG21 (DNA, G4) GGGTTAGGGTTAGGGTTAGGG
Description: fluorescent intercalator displacement (FID). The settings on record: thiazole orange displaced.

Test [3] concerns BEL-7404 cells. Description: Apoptosis analysis (annexin V-FITC/PI flow cytometry). It is filed as cell-based, human. The settings on record: BEL-7404, 10 μM, 24 h; untreated 6.1%. How it is done: Platinum(II)-based drugs were widely used in anticancer chemotherapies, therefore, we performed experiments to test the potency of chiral platinum(II) complexes 4–6 for inducing senescence and apoptosis in BEL-7404 cells. […] We next investigated the effect of complexes 4–6 on the induction of apoptosis. BEL-7404 cells were incubated with complexes 4 (10 and 20 μM), 5 (10 and 20 μM) and 6 (5, 10 and 20 μM) for 24 h, respectively, and then these cells staining with PI and Annexin-V-FITC were determined by flow cytometry (Figure 3A and Supplementary Figure 18). As shown in Figure 3A and Supplementary Figure 18, after treated of complexes 4–6 with 10 μM for 24 h, the percentage of apoptotic cells (including early-stage and late-stage, Q2+Q4) was 13.1%, 7.0% and 25.4%, respectively, whereas the normal cells was only 6.1%. We further investigated the ability of complexes 4–6 (5, 10 and 20 μM) to induce BEL-7404 cell cycle arrest (Figure 3B and Supplementary Figure 19). Cells were treated with complexes 4–6 at 10 μM for 48 h, the cell cycle arrest was determined by using flow cytometry. […]
Apoptosis analysis c-myc antibody, or anti-β-actin primary antibody and the Apoptosis was detected by flow cytometric analysis corresponding secondary antibody were used to detect of annexin V staining. […] Then, cells were incubated with annexin V-FITC and PI for 1.0 h at Staining for SA-β-Gal activity was carried out room temperature in the dark and immediately analyzed according to Moore and Chen reports. […] The data are presented as biparametric After the long-term incubation with complexes 4–6, the dot plots showing PI red fluorescence vs annexin V-FITC growth medium was aspirated and the BEL-7404 cells green fluorescence. were fixed in 2% formaldehyde/0.2% glutaraldehyde for 15.0 min at room temperature. […] Finally, the extraction, RT-PCR, and the selective binding to G4s by BEL-7404 cell cycle was determined with FACS Calibur complexes 4–6 was according to the our previous reported flow cytometer (BD) and analyzed using Cell Quest. […]

For another test, the system named is Pu22. Description: FID assay. The following applies: for Pu22DC50: FID; for ctDNADC50/Pu22DC50: FID selectivity ratio. In kind it is binding.
The next test concerns HTG21 G4. In words: Fluorescence titration (Stern-Volmer quenching). The following applies: HTG21 G4-DNA, compound 20 μM, 100 mM K+. In kind it is binding, human. The procedure: We asked whether chiral platinum(II) complexes 4–6 have the ability to bind to G-quadruplex DNA. To address this, FRET assays, CD spectroscopy, G4-FID assays, and fluorescence titration analysis were performed. […] For G4-HTG21, the ^G4DC50 values of complexes 4–6 were 1.23, 1.26 and 0.99 μM, respectively; while, for G4-Pu27, the ^G4DC50 values were 1.01, 0.89, and 0.82 μM, respectively. In addition, the ^ctDNADC50/^G4DC50 ratio of the HTG21 and Pu27 G4s treated with complexes 4–6 was in the range of 50.54-90.65 and 71.56-110.67 folds, respectively. To further evaluate the binding ability of complexes 4–6 to Pu27 and HTG21G4s, CD spectroscopy and fluorescence titration analysis were performed. […] The quenching ability of complexes 4–6 to HTG21 and Pu27 G4 DNA fluorescence can be quantitatively estimated by their respective quenching constant (Kq), which was derived from the Stern-Volmer quenching equation. […] Finally, the selective binding of complexes 4–6 towards G4 DNA was analyzed by FRET-melting assays. […] In contrast, the ΔTm value for the F32T+H20M duplex DNA in the presence of complexes 4–6 was 1.18, 1.34, and 0.78 °C under the same conditions (Figure 4A). Altogether, our data indicated complexes 4–6, especially complex 6, is the best binder to G4 DNA, which caused DNA complex displaying the highest thermodynamic stability. […]
Supplementary Figure 25: Fluorescence emission spectra of compounds (20 μM) in 100 mM K+ solution in the absence and
presence of human telomeric G-quadruplex DNA with 4 (A), 5 (B) and 6 (C), respectively.

As to `O=C(NCC(O)CO)c1cnc2c3c(cccc13)-c1ccccc1C2=O.[Cl-].[Cl-].[Pt+2]` (racemic) [ligand 1, R/S-(±)-FOA], the IC50 in the test on BEL-7404 cells [1] is 17.2 ± 0.1 µM. Besides, the G4DC50 in test [2] turned out to be 1.23 µM.

Take `O=C(NC[C@@H](O)CO)c1cnc2c3c(cccc13)-c1ccccc1C2=O.[Cl-].[Cl-].[Pt+2]` [ligand 2, R-(+)-FOA]: the IC50 in the test with BEL-7404 cells [1] was 20.5 ± 0.1 µM. The compound further registered a G4DC50 in test [2] of 1.26 µM.

Regarding `O=C(NC[C@H](O)CO)c1cnc2c3c(cccc13)-c1ccccc1C2=O.[Cl-].[Cl-].[Pt+2]` [ligand 3, S-(–)-FOA], the IC50 in the test with BEL-7404 cells [1] was 15.4 ± 0.2 µM. Further, the G4DC50 in test [2] came out at 0.99 µM.

For cis-[PtCl2(R-(+)-FOA)] [complex 5], the “percentage of apoptotic cells (early-stage and late-stage, Q2+Q4)” value (“percentage of apoptotic cells” for short) in the test with BEL-7404 cells [3] is on record as 7.0%. In addition, in the test on Pu22, the Pu22DC50 came out at 1.74 µM and the ctDNADC50/Pu22DC50 is 36.60. In the test on HTG21 G4, the “Extent of quenching (%)” value is recorded as 27.21% and the “Kq (quenching constant, Stern-Volmer)” value is recorded as 4.36×10^4 L·mol–1.

Regarding cis-[PtCl2(R/S-(±)-FOA)] [complex 4], in the test on BEL-7404 cells [3], the “percentage of apoptotic cells” value came out at 13.1%. Moreover, in the test on Pu22, the Pu22DC50 amounted to 7.41 µM and the ctDNADC50/Pu22DC50 is reported as 10.24. Also, in the test with HTG21 G4, the “Extent of quenching (%)” value worked out at 27.34% and the “Kq (quenching constant, Stern-Volmer)” value is given as 4.60×10^4 L·mol–1.

For the compound cis-[PtCl2(S-(–)-FOA)] [complex 6], in the test with BEL-7404 cells [3], the “percentage of apoptotic cells” value is reported as 25.4%. In addition, in the test with Pu22, the Pu22DC50 amounted to 1.14 µM and the ctDNADC50/Pu22DC50 was determined as 79.59. In the test with HTG21 G4, the “Extent of quenching (%)” value is 28.42% and the “Kq (quenching constant, Stern-Volmer)” value was 4.65×10^4 L·mol–1.
